Common to all, as to assay: relative viability (nuclei count vs DMSO), 5 days (fraction); higher = more cells survive
Compound in the test “Entinostat + Luminespib”: Nc1ccccc1NC(=O)c1ccc(CNC(=O)OCc2cccnc2)cc1 [Entinostat] + CCNC(=O)c1noc(-c2cc(C(C)C)c(O)cc2O)c1-c1ccc(CN2CCOCC2)cc1 [Luminespib] (partner 0.01 µM)
The method in brief: (§1)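 Relative viability is defined as nuclei in treated wells over nuclei in vehicle wells. Duplicate plates were run and medians reported. Lung cancer cell lines in 1536-well plates were dosed by pin tool one day after seeding, with one drug or with a fixed anchor-drug dose plus five library-drug doses (not always all listed) in √10 steps, and nuclei were counted after 5 days.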

Compound in test [1]: C1COCCN1C2=NC(=NC3=C2OC4=C3C=CC=N4)C5=CC(=CC=C5)NC(=O)C6=CN=C(C=C6)N + Nc1ncn([C@H]2C[C@H](O)[C@@H](CO)O2)c(=O)n1 [Decitabine] (partner 2 µM)
The method in brief: as §1

Compound in the test “Entinostat + Decitabine”: Nc1ccccc1NC(=O)c1ccc(CNC(=O)OCc2cccnc2)cc1 [Entinostat] + Nc1ncn([C@H]2C[C@H](O)[C@@H](CO)O2)c(=O)n1 [Decitabine] (partner 2 µM)
The method in brief: as §1

Compound in test [2]: C1COCCN1C2=NC(=NC3=C2OC4=C3C=CC=N4)C5=CC(=CC=C5)NC(=O)C6=CN=C(C=C6)N + CS(=O)(=O)N1CCN(Cc2cc3nc(-c4cccc5[nH]ncc45)nc(N4CCOCC4)c3s2)CC1 [Pictilisib] (partner 1 µM)
The method in brief: as §1

The results in this text go back to the supplement of paper PMC10307832.

UMC-11: the relative viability came out at 1.06 with Entinostat + Luminespib (first compound 0.02 µM); 1.14 in the test with Entinostat + Luminespib (first compound 0.06325 µM); 0.937 with Entinostat + Luminespib (first compound 0.2 µM); 0.261 with Entinostat + Luminespib (first compound 0.6325 µM); 0.221 with Entinostat + Luminespib (first compound 2 µM); 0.582 in test [1] (first compound 0.02 µM). Further, the relative viability was 0.537 in test [1] (first compound 0.06325 µM); 0.551 in test [1] (first compound 0.2 µM); 0.537 in test [1] (first compound 0.6325 µM); 0.573 in test [1] (first compound 2 µM); 0.65 with Entinostat + Decitabine (first compound 0.02 µM); 0.681 with Entinostat + Decitabine (first compound 0.06325 µM). Moreover, the relative viability was 0.506 with Entinostat + Decitabine (first compound 0.2 µM); 0.386 with Entinostat + Decitabine (first compound 0.6325 µM); 0.725 with Entinostat + Decitabine (first compound 2 µM); 0.837 in test [2] (first compound 0.02 µM); 0.875 in test [2] (first compound 0.06325 µM); 0.791 in test [2] (first compound 0.2 µM). Further, the relative viability in test [2] (first compound 0.6325 µM) is 0.776; in test [2] (first compound 2 µM), 0.598.
